One data set relates to B. subtilis ATCC 6633. Briefly: microbe, parasite or virus in culture. The method, then:
(§1) The L-peptides identified from five different phage display libraries were catalogued as described previously and selected sequences were synthesized in D-enantiomeric form by SPPS for further investigation in several biological assays.
(§2) MICs were determined according to a 96-well microdilution protocol outlined by the Clinical and Laboratory Standard Institute (CLSI) guideline with modifications for peptide antibiotics reported by Wiegand et al.^35 Two-fold serial peptide dilutions were performed to go from 2560 μg/ml to 5 μg/ml in0.2% BSA and 0.01% acetic acid buffer in 96-well polypropylene plates (COSTAR, #3879). Dilution of bacterial suspensions (1:200) of different bacterial strains that were grown until 0.5 McFarland standard were prepared to obtain a final inoculum concentration of 8×10^5 CFU/ml in Mueller-Hinton broth.

For the next data set, the system named is E. coli ATCC 25992. Briefly: microbe, parasite or virus in culture. The method, then: as §1, §2
The next data set relates to E. faecalis ATCC 29121. Put plainly: microbe, parasite or virus in culture. The method, then:
as §1, §2

Data set [1] concerns Methicillin-resistant S. aureus (MRSA) ATCC 43300. Briefly: microbe, parasite or virus in culture. The procedure:
as §1, §2

The next data set has as its system S. aureus ATCC 6538. Briefly: microbe, parasite or virus in culture. The procedure: as §1, §2
Data set [2] deals with high level vancomycin resistant E. faecium (vanA) ATCC 51559. Briefly: microbe, parasite or virus in culture. The method, then: as §1, §2
Data set [3] deals with low level vancomycin resistant E. faecium (vanB) ATCC 51299. Put plainly: microbe, parasite or virus in culture. The method, then:
as §1, §2

Data set [4] deals with human red blood cells (hRBC). Put plainly: Hemolytic activity. In kind it is cell-based. As to conditions: for lysis / toxicity on red blood cells: concentrations up to 256 μg/ml. The method, then: Fresh red human blood cells (hRBC) were washed and centrifuged at 3000 rpm for 5 min at 4° C. with PBS until a clear solution was obtained. Two-fold serial dilutions of each peptide in PBS from 0.5 μg/ml to 256 μg/ml were incubated with 0.25% (v/v) hRBC suspension at 37° C. for 1 h, and then centrifuged for 5 min at 3500 rpm in 96-well plate. 50 μl of the supernatant from each well was diluted with 50 μl pure water, and the OD at 415 nm was measured using microplate reader. Melittin at the same concentrations (200 μg/ml for complete lysis) was used as a positive control. Percent hemolysis was calculated according to the equation: […]
where complete hemolysis was defined as the average hemolysis of all wells containing a final concentration of melittin ranging from 50 to 400 μg/ml. Experiments were performed as triplicates at different days.

The test system of a further data set is HeLa cells. Briefly: Mammalian cytotoxicity (MTT) assay. As to conditions: 24 h, b121: concentrations up to 256 μg/ml. The method, then: Cervical cancer cells (HeLa) were cultured in Dulbecco's Modified Eagle's medium (DMEM) (Invitrogen #11995-073) supplemented with 10% bovine calf serum at 37° C., 5% CO2, and seeded (5×10^3 cells/well) in 96-well plate flat-bottomed plate for 24 h before the assay. […] After washing the cells with PBS, the cells were subjected to the standard yellow tetrazolium (3-(4,5-dimethylthiazol-2-yl)-2,5-diphenyltetrazolium bromide (MTT) assay protocol at final concentration of 0.5 mg/ml for 4 h in a humidified 5% CO2 atmosphere at 37° C. MTT solution was then aspirated, and the purple formazan crystals were resuspended in DMSO by incubation for 5 min at 37° C. The absorbance at 540 nm was then read using a microplate reader. Viability control (100% viability) was assigned to samples with only HeLa cells and DMEM media, 0% viability was assigned to samples with 1% added Triton-X-100 and no peptide. Experiments were performed as triplicates at different days.

The conditions of data set [5]: read-out: Kd of vancomycin:D-Ala-D-Ala complex; cited from earlier work.
For data set [6] the following is noted: relative to D-Ala-D-Ala precursor; cited from earlier work.
For data set [7], the system named is several Gram-positive strains (with one Gram-negative strain as control). Put plainly: MIC / antibiotic susceptibility, strains not singled out. In kind it is cell-based. As to conditions: vancomycin-sensitive bacteria. The method, then: as §1, §2
For another data set, the system named is S. aureus. Put plainly: Time-kill kinetic assay. In kind it is cell-based. The note with it: 10×MIC, 5×MICs. The method, then:
The bacteria-killing kinetics of peptides with S. aureus was measured at 5×MICs, and vancomycin was used as a positive control. An overnight culture of bacterial cells was re-suspended in fresh MH broth at density of 10^7 cells/ml, and cultured with peptides at 37° C. Viable colony forming units (CFUs) were counted by performing tenfold serial dilutions of the aliquot sample at intervals of 0, 1, 2, 4, 8, 12, and 24 hours after inoculation, and plated on MHB agar plates. Time-kill curves were plotted as Log10 (cfu ml^−1) versus time functions.

Data set [8] deals with cell wall biosynthesis in S. aureus. Briefly: Accumulation of UDP-N-acetylmuramyl-pentapeptide precursor. In kind it is cell-based. As to conditions: 10-fold MIC, 1 h. From the text:
We next examined the effect of P14 and P15 on cell wall biosynthesis in live bacteria. Blockade of this biosynthetic pathway causes accumulation of the water soluble intracellular intermediate lipid II precursor UDP-MurNAc-L-Ala-D-γ-Glu-L-Lys-D-Ala-D-Ala.^40 This intermediate is detectable after extraction from the cytosol in response to antibiotic administration by chromatographic methods.
Accumulation of UDP-N-acetylmuramyl-pentapeptide precursor from S. aureus Accumulation of peptidoglycan precursor of S. aureus […] was analyzed in the presence of peptide antibiotics. Bacteria were grown at 37° C. till OD600 of 0.5 was attained. Ten times MICs of peptide antibiotics were added per ml of grown bacterial culture and allowed to stand for 1 h. After cooling the cells on ice, they were harvested by centrifugation at 4° C. for 15 min. Bacterial cells were suspended in distilled water, and then slowly stirred into boiling water for 15 min. The suspension was allowed to cool first at room temperature, then on ice. After centrifugation at 4° C. for 1 h, the supernatant was lyophilized. The lyophilized sample was dissolved in water, and pH was adjusted to 2 by addition of 20% H3PO4. The white precipitate was removed by centrifugation, and the supernatant was immediately subjected to RP-HPLC analysis and MWs were assessed by MALDI-TOF mass spectroscopy.

[9] abbreviates: Table 5, E. faecalis ATCC 29121.
The mark [10] stands for this setting: Table 5, high level vancomycin resistant E. faecium ATCC 51559.

pKd: −log10 of the molar value. ≈ marks a conversion by molar mass, not a printed value. Square brackets hold non-standard residues; d marks the D form. Ends that are not written are not given here.

`CN[C@H](CC(C)C)C(=O)N[C@H]1C(=O)N[C@@H](CC(N)=O)C(=O)N[C@H]2C(=O)N[C@H]3C(=O)N[C@H](C(=O)N[C@H](C(=O)O)c4cc(O)cc(O)c4-c4cc3ccc4O)[C@H](O)c3ccc(c(Cl)c3)Oc3cc2cc(c3O[C@@H]2O[C@H](CO)[C@@H](O)[C@H](O)[C@H]2O[C@H]2C[C@](C)(N)[C@H](O)[C@H](C)O2)Oc2ccc(cc2Cl)[C@H]1O` [P1, Vancomycin, reference compound]: the MIC in the data set on B. subtilis ATCC 6633 (Bacillus subtilis, ATCC6633, read-out: MIC B. subtilis) was 0.5 µg/mL (≈ 0.345 µM); in the data set on E. coli ATCC 25992 (Escherichia coli, ATCC25992, read-out: MIC E. coli), more than 256 µg/mL; with E. faecalis ATCC 29121 (Enterococcus faecalis, ATCC29121, read-out: MIC E. faecalis), 1 µg/mL (≈ 0.69 µM); in data set [1] (Staphylococcus aureus, read-out: MIC MRSA) it was 0.5 µg/mL (≈ 0.345 µM); with S. aureus ATCC 6538 (Staphylococcus aureus, ATCC6538, read-out: MIC S. aureus), 0.5 µg/mL (≈ 0.345 µM); in [2] (Enterococcus faecium, ATCC51559 / VRE, read-out: MIC VRE (vanA)), more than 256 µg/mL. In addition, the MIC in [3] (Enterococcus faecium, ATCC51299 / VRE, read-out: MIC VRE (vanB)) was 32 µg/mL (≈ 22.1 µM). In the data set on B. subtilis ATCC 6633 (Table 6, B. subtilis ATCC6633), the “MIC B. subtilis” value was 0.5 µg/mL (≈ 0.345 µM). Besides, the “MIC E. coli” value in the data set with E. coli ATCC 25992 (Table 6, E. Coli ATCC25992) was more than 256 µg/mL. Moreover, the “MIC E. faecalis” value against E. faecalis ATCC 29121 (Table 6, E. faecalis ATCC29121) came out at 1 µg/mL (≈ 0.69 µM). In addition, in data set [1] (Table 6, MRSA ATCC43300), the “MIC MRSA” value stood at 0.5 µg/mL (≈ 0.345 µM). Moreover, the “MIC S. aureus” value in the data set on S. aureus ATCC 6538 (Table 6, S. aureus ATCC6538) worked out at 0.5 µg/mL (≈ 0.345 µM). For the same compound, the “activity against vanA / high-level vancomycin-resistant strain” value in [2] is “no activity”. In addition, the “MIC VRE (vanA)” value in data set [2] (Table 6, high level vancomycin resistant E. faecium ATCC51559) was more than 256 µg/mL. Also, in data set [3] (Table 6, low level vancomycin resistant E. faecium ATCC51299), the “MIC VRE (vanB)” value was 32 µg/mL (≈ 22.1 µM). The “percentage hemolysis of hRBCs” value in [4] (0.25% hRBC, 37° C., 1 h) was 0%. For the same compound, the “cytotoxicity on HeLa cells” value in the data set with HeLa cells is given as “non-toxic”. Further, the pKd (as a rule, the Kd on a negative log10 scale, so that one unit is a factor of ten) in data set [5] is approximately 6.00. In addition, in [6], the “reduction of binding affinity on D-alanine to D-lactate substitution” value was approximately 1000 fold.
Regarding `CC[C@H](C)[C@H](NC(=O)CN)C(=O)NCC(=O)N[C@@H](C)C(=O)N[C@H](C(=O)N[C@@H](CC(C)C)C(=O)N[C@@H](CCCCN)C(=O)N[C@H](C(=O)N[C@@H](CC(C)C)C(=O)N[C@H](C(=O)N[C@H](C(=O)NCC(=O)N[C@@H](CC(C)C)C(=O)N1CCC[C@H]1C(=O)N[C@@H](C)C(=O)N[C@@H](CC(C)C)C(=O)N[C@H](C(=O)N[C@@H](CO)C(=O)N[C@@H](Cc1c[nH]c2ccccc12)C(=O)N[C@H](C(=O)N[C@@H](CCCCN)C(=O)N[C@@H](CCCNC(=N)N)C(=O)N[C@@H](CCCCN)C(=O)N[C@@H](CCCNC(=N)N)C(=O)N[C@@H](CCC(N)=O)C(=O)N[C@@H](CCC(N)=O)C(N)=O)[C@@H](C)CC)[C@@H](C)CC)[C@@H](C)O)[C@@H](C)O)C(C)C)C(C)C` [P2, Melittin], the “cytotoxicity on HeLa cells” value in the data set with HeLa cells is reported as “toxic”.
Take “CQTDVCQRTIC ([dC][dQ][dT][dD][dV][dC][dQ][dR][dT][dI][dC]; not fully specified (bridges); also: bicyclic, ring places and kind not given here) [P14, bicyclic D-peptide (library BC-A)]”: the “MIC B. subtilis” value against B. subtilis ATCC 6633 (Table 5, B. subtilis ATCC 6633) stood at 8 µg/mL. The “MIC E. coli” value in the data set with E. coli ATCC 25992 (Table 5, E. coli ATCC 25992) was more than 256 µg/mL. Moreover, the “MIC E. faecalis” value in the data set on E. faecalis ATCC 29121 (setting [9]) came to 32 µg/mL. For the same compound, the “MIC against MRSA” value in data set [1] amounted to 32 µg/mL. Moreover, the “MIC against S. aureus” value with S. aureus ATCC 6538 stood at 8 µg/mL. Besides, the “activity against vanA / high-level vancomycin-resistant strain” value in data set [2] is reported as “high antibacterial activity”. Besides, the “MIC VRE (vanA)” value in data set [2] (setting [10]) was determined as 128 µg/mL. In data set [3], the “MIC against vanB vancomycin-resistant Enterococci” value was 32 µg/mL and the “activity against vanB / low-level vancomycin-resistant strain” value is given as “high antibacterial activity”. For the same compound, the “activity against vancomycin-sensitive bacterial strains” value in data set [7] is recorded as “high antibacterial activity”. The “killing kinetics / bactericidal activity” value in the data set on S. aureus is recorded as “bactericidal activity similar to vancomycin”. Further, the “accumulation of UDP-MurNAc-pentapeptide” value in data set [8] was “accumulation of UDP-MurNAc-pentapeptide at levels similar to vancomycin”. Further, the “lysis / toxicity on red blood cells” value in data set [4] was “neither caused lysis of erythrocytes”.
For the compound “CSLITQCGGVGC ([dC][dS][dL][dI][dT][dQ][dC]GG[dV]G[dC]; not fully specified (bridges); also: bicyclic, ring places and kind not given here) [P15, bicyclic D-peptide (library BC-B)]”, in the data set with B. subtilis ATCC 6633 (Table 5, B. subtilis ATCC 6633), the “MIC B. subtilis” value worked out at 8 µg/mL. In addition, the “MIC E. coli” value against E. coli ATCC 25992 (Table 5, E. coli ATCC 25992) was more than 256 µg/mL. The “MIC E. faecalis” value against E. faecalis ATCC 29121 (setting [9]) came out at 16 µg/mL. The “MIC MRSA” value in data set [1] (Table 5, MRSA ATCC 43300) stood at 32 µg/mL. For the same compound, the “MIC S. aureus” value in the data set on S. aureus ATCC 6538 (Table 5, S. aureus ATCC 6538) turned out to be 8 µg/mL. In [2] (setting [10]), the “MIC VRE (vanA)” value is more than 256 µg/mL. For the same compound, the “MIC VRE (vanB)” value in [3] (Table 5, low level vancomycin resistant E. faecium ATCC 51299) worked out at 128 µg/mL. Moreover, the “activity against vancomycin-sensitive bacterial strains” value in data set [7] is recorded as “similarly high activity as P14”. Also, the “killing kinetics / bactericidal activity” value with S. aureus is reported as “bactericidal activity similar to vancomycin”. For the same compound, in data set [8], the “accumulation of UDP-MurNAc-pentapeptide” value is reported as “accumulation of UDP-MurNAc-pentapeptide at levels similar to vancomycin”. Also, the “lysis / toxicity on red blood cells” value in data set [4] was “neither caused lysis of erythrocytes”.

These data come from US20220211796A1, “PEPTIDE ANTIBIOTICS AND METHODS OF USE THEREOF” (priority 2019, published 2022).
